Experimental data taken from ChEMBL document CHEMBL4368919, “Identification of the Metabolic Profile of the α-Tubulin-Binding Natural Product (-)-Pironetin” (J Med Chem, 2019).

Tests used:
3Y1 cell line = test: Cell cycle arrest in rat 3Y1 cells assessed as accumulation at G2/M phase after 24 hrs by propidium iodide-staining based flow cytometry relative to (-)-Pironetin; assay type: ADME; settings: 3y1, 24 h
[1] = target: T1, Tubulin alpha (Homo sapiens) (UniProt P0DPH7+P68366+Q71U36+P68363+Q9BQE3+Q6PEY2+A6NHL2+Q9NY65); test: Inhibition of tubulin alpha in human A2780 cells assessed as cell growth inhibition after 48 hrs by MTT assay; assay type: cell-based
[2] = target: T1, Tubulin alpha (Homo sapiens); test: Inhibition of tubulin alpha in human A2780CP cells assessed as cell growth inhibition after 48 hrs by MTT assay; assay type: cell-based
[3] = Drug level in human liver microsomes treated with pironetin assessed as compound formation after 30 mins by LC-MS/MS analysis; assay type: ADME, Microsome; settings: 0.5 h
[4] = Inhibition of tubulin alpha in human A2780 cells assessed as reduction in cell growth
[5] = Stability in human serum assessed as compound remaining at 1.10 mg after 24 hrs by HPLC analysis; assay type: ADME, cell-free; settings: read-out: Stability
[6] = Stability in mouse serum assessed as compound remaining at 1.30 ml after 24 hrs by HPLC analysis; assay type: ADME, cell-free; settings: read-out: Stability
[7] = Stability in rat serum assessed as compound remaining after 24 hrs; assay type: ADME, cell-free; settings: read-out: Stability
[8] = Half life in human liver microsomes in presence of NADPH regeneration system by LC-MS/MS analysis; assay type: ADME, Microsome
[9] = Half life in mouse liver microsomes in presence of NADPH regeneration system by LC-MS/MS analysis; assay type: ADME, Microsome
[10] = Half life in rat liver microsomes in presence of NADPH regeneration system by LC-MS/MS analysis; assay type: ADME, Microsome
[11] = Protein binding in human plasma; assay type: ADME, cell-free; settings: read-out: PPB (converted)
[12] = Protein binding in mouse plasma; assay type: ADME, cell-free; settings: read-out: PPB (converted)
[13] = Protein binding in rat plasma; assay type: ADME, cell-free; settings: read-out: PPB (converted)
Cytochrome P450 2C9 = Cytochrome P450 2C9 (Homo sapiens, UniProt P11712); test: Inhibition of CYP2C9 (unknown origin) using tolbutamide as substrate; assay type: ADME
Cytochrome P450 2D6 = Cytochrome P450 2D6 (Homo sapiens, UniProt P10635); test: Inhibition of CYP2D6 (unknown origin) using dextromethorphan as substrate; assay type: ADME
Cytochrome P450 3A4 [14] = target: T2, Cytochrome P450 3A4 (Homo sapiens, UniProt P08684); test: Inhibition of CYP3A4 (unknown origin) using midazolam as substrate; assay type: ADME
Cytochrome P450 3A4 [15] = target: T2, Cytochrome P450 3A4; test: Inhibition of CYP3A4 (unknown origin) using testosterone as substrate; assay type: ADME

T2 sequence (P08684 whole entry): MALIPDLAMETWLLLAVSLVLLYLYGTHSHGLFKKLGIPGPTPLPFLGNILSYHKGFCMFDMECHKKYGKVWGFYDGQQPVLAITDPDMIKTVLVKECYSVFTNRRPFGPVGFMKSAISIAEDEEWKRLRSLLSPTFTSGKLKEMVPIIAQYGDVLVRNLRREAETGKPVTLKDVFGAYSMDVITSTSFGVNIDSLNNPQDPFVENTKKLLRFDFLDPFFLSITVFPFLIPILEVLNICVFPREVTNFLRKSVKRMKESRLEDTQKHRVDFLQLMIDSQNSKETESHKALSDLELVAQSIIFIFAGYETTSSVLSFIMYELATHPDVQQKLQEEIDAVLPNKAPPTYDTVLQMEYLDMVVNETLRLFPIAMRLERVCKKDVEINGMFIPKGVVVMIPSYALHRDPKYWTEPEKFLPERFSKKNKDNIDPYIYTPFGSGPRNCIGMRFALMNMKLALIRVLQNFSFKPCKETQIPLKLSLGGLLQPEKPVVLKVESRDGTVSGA
Cytochrome P450 2D6, sequence (P10635 whole entry): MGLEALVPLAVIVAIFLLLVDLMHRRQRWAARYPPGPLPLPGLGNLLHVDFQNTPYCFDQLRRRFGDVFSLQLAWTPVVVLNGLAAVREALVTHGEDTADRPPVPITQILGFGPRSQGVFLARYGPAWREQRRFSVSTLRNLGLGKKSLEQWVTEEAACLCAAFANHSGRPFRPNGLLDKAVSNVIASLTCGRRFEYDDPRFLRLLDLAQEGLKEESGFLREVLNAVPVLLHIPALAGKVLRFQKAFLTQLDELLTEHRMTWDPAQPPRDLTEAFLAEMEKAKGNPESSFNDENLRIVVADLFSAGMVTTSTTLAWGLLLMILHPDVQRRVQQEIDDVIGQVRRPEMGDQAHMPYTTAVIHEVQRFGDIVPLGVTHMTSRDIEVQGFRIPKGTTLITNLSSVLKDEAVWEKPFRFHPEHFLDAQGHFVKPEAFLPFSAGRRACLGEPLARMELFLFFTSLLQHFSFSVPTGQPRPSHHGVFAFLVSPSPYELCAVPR
Cytochrome P450 2C9, sequence (P11712 whole entry): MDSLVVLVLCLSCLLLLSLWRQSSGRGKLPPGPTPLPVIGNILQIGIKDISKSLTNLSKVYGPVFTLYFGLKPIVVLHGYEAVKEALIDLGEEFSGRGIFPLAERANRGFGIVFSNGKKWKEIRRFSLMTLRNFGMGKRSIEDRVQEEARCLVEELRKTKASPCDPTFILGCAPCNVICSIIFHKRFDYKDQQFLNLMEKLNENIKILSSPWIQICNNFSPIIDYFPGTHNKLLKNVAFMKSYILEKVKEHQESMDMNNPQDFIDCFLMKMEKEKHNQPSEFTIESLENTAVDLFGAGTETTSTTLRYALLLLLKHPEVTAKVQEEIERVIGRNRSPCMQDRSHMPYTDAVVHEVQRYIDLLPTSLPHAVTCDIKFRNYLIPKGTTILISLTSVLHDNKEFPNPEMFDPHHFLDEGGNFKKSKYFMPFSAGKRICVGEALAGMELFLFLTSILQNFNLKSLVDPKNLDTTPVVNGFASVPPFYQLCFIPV

| remaining at 24 h [5] [%] | remaining at 24 h [6] [%] | remaining at 24 h [7] [%] | t1/2 [8] [min] | t1/2 [9] [min] | t1/2 [10] [min] | fraction unbound [11] | fraction unbound [12] | fraction unbound [13] | inhibition (INH) (Cytochrome P450 2C9) | inhibition (INH) (Cytochrome P450 2D6) | inhibition (INH) (Cytochrome P450 3A4 [14]) | inhibition (INH) (Cytochrome P450 3A4 [15]) | SMILES | Activity (3Y1 cell line) | GI50 [1] [nM] | GI50 [2] [nM] | Drug uptake [3] | fold change (FC) (3Y1 cell line) | IC50 [4] [nM] |
| --- | --- | --- | --- | --- | --- | --- | --- | --- | --- | --- | --- | --- | --- | --- | --- | --- | --- | --- | --- |
| – | – | – | – | – | – | – | – | – | – | – | – | – | C/C=C/C[C@H](C)[C@@H](O)[C@@H](C)[C@H](O)C[C@H]1OC(=O)C=C[C@H]1CC | Toxic | 29.6 | 82.3 | Active | – | – |
| – | – | – | – | – | – | – | – | – | – | – | – | – | CC[C@@H]1C=CC(=O)O[C@@H]1C[C@@H](O)[C@H](C)[C@H](OC)[C@@H](C)C[C@@H]1O[C@H]1C (relative stereo) | – | 218 | 1010 | Active | 25 | 540 |
| 50 | 35 | 56 | 7 | < 15 | < 15 | 0.13 | 0.02 | 0.07 | Active | Active | Active | Active | C/C=C/C[C@H](C)[C@@H](OC)[C@@H](C)[C@H](O)C[C@H]1OC(=O)C=C[C@H]1CC [PIRONETIN] | – | 22.2 | 22.3 | – | – | 26 |
